# Active and inactive are the calls of the source. The calls are words filed in the database; no cut-off is given here.
# Columns and labels:
# [1] = Reduction in Cyclin B1 level in human MDA-MB-231 cells assessed as fold change at 10 uM measured after 72 hrs by Western blot analysis relative to control; format: functional
# SGC-7901 [2] = assay: Induction of cell cycle arrest in human SGC-7901 cells assessed as accumulation of cells at G2/M phase at 20 uM incubated for 24 hrs by PI staining based flow cytometric analysis (reference value: 0.18%); format: functional
# MDA-MB-231 [3] = assay: Induction of autophagy in human MDA-MB-231 cells assessed as fold increase in Lamp1 level at 5 uM measured after 6 hrs by Western blot analysis relative to control; format: functional
# MDA-MB-231 [4] = assay: Induction of cell cycle arrest in human MDA-MB-231 cells assessed as accumulation of cells at G2/M phase at 50 uM incubated for 24 hrs by PI staining based flow cytometric analysis (reference value: 7.47%); format: functional
# SGC-7901 [5] = assay: Induction of cell cycle arrest in human SGC-7901 cells assessed as accumulation of cells at S phase at 20 uM incubated for 24 hrs by PI staining based flow cytometric analysis (reference value: 40.15%); format: functional
# [6] = Drug uptake in human MDA-MB-231 cells assessed as accumulation by measuring lysosome-specific fluorescent signals in presence of excess eudistomin Y1 at 1 uM incubated for 1 hrs by confocal laser-scanning microscopic analysis; format: ADME, cell-based; details: mda-mb-231, 1 h
# SGC-7901 [7] = assay: Induction of cell cycle arrest in human SGC-7901 cells assessed as accumulation of cells at G0/G1 phase at 50 uM incubated for 24 hrs by PI staining based flow cytometric analysis (reference value: 59.67%); format: functional
# [8] = Reduction in Cyclin B1 level in human MDA-MB-231 cells assessed as fold change in presence of 3-MA at 15 uM measured after 72 hrs by Western blot analysis relative to control; format: functional
# HepG2 = assay: Cytotoxicity against human HepG2 cells assessed as cell inhibition measured after 72 hrs by MTT assay; format: functional, cell-based; details: HepG2, 72 h
# MDA-MB-231 [9] = assay: Induction of cell cycle arrest in human MDA-MB-231 cells assessed as accumulation of cells at S phase at 5 uM incubated for 24 hrs by PI staining based flow cytometric analysis (reference value: 29.80%); format: functional
# MDA-MB-231 [10] = assay: Induction of cell cycle arrest in human MDA-MB-231 cells assessed as accumulation of cells at G0/G1 phase at 20 uM incubated for 24 hrs by PI staining based flow cytometric analysis (reference value: 62.73%); format: functional
# [11] = Reduction in CDK1 level in human MDA-MB-231 cells assessed as fold change in presence of 3-MA at 15 uM measured after 72 hrs by Western blot analysis relative to control; format: functional
# [12] = Reduction in Cyclin B1 level in human MDA-MB-231 cells assessed as fold change at 5 uM measured after 72 hrs by Western blot analysis relative to control; format: functional
# SGC-7901 [13] = assay: Induction of cell cycle arrest in human SGC-7901 cells assessed as accumulation of cells at G2/M phase at 10 uM incubated for 24 hrs by PI staining based flow cytometric analysis (reference value: 0.18%); format: functional
# SGC-7901 [14] = assay: Induction of cell cycle arrest in human SGC-7901 cells assessed as accumulation of cells at G0/G1 phase at 20 uM incubated for 24 hrs by PI staining based flow cytometric analysis (reference value: 59.67%); format: functional
# MDA-MB-231 [15] = assay: Induction of cell cycle arrest in human MDA-MB-231 cells assessed as accumulation of cells at G2/M phase at 5 uM incubated for 24 hrs by PI staining based flow cytometric analysis (reference value: 7.47%); format: functional
# MDA-MB-231 [16] = assay: Induction of cell cycle arrest in human MDA-MB-231 cells assessed as accumulation of cells at G0/G1 phase at 50 uM incubated for 24 hrs by PI staining based flow cytometric analysis (reference value: 62.73%); format: functional
# MDA-MB-231 [17] = assay: Induction of autophagy in human MDA-MB-231 cells assessed as fold increase in Lamp1 level at 10 uM measured after 6 hrs by Western blot analysis relative to control; format: functional
# MDA-MB-231 [18] = assay: Induction of cell cycle arrest in human MDA-MB-231 cells assessed as accumulation of cells at S phase at 50 uM incubated for 24 hrs by PI staining based flow cytometric analysis (reference value: 29.80%); format: functional
# MDA-MB-231 [19] = assay: Induction of cell cycle arrest in human MDA-MB-231 cells assessed as accumulation of cells at S phase at 10 uM incubated for 24 hrs by PI staining based flow cytometric analysis (reference value: 29.80%); format: functional
# SGC-7901 [20] = assay: Induction of cell cycle arrest in human SGC-7901 cells assessed as accumulation of cells at S phase at 50 uM incubated for 24 hrs by PI staining based flow cytometric analysis (reference value: 40.15%); format: functional
# SGC-7901 [21] = assay: Induction of cell cycle arrest in human SGC-7901 cells assessed as accumulation of cells at G0/G1 phase at 5 uM incubated for 24 hrs by PI staining based flow cytometric analysis (reference value: 59.67%); format: functional
# LS180 = assay: Cytotoxicity against human LS180 cells assessed as cell inhibition measured after 72 hrs by MTT assay; format: functional, cell-based; details: LS180, 72 h
# MDA-MB-231 [22] = assay: Induction of autophagy in human MDA-MB-231 cells assessed as fold increase in LC3I/II protein level at 15 uM measured after 6 hrs by Western blot analysis relative to control; format: functional
# [23] = Reduction in CDK1 level in human MDA-MB-231 cells assessed as fold change at 15 uM measured after 72 hrs by Western blot analysis relative to control; format: functional
# MDA-MB-231 [24] = assay: Induction of cell cycle arrest in human MDA-MB-231 cells assessed as accumulation of cells at S phase at 20 uM incubated for 24 hrs by PI staining based flow cytometric analysis (reference value: 29.80%); format: functional
# SGC-7901 [25] = assay: Induction of cell cycle arrest in human SGC-7901 cells assessed as accumulation of cells at S phase at 10 uM incubated for 24 hrs by PI staining based flow cytometric analysis (reference value: 40.15%); format: functional
# MDA-MB-231 [26] = assay: Induction of autophagy in human MDA-MB-231 cells assessed as increase in lysosomal membrane permeabilization by measuring red fluorescence in cytoplasm at 10 to 20 uM measured after 24 hrs by acridine orange (AO) staining assay; format: functional, cell-based; details: dose 10-20 µM
# [27] = Reduction in Cyclin B1 level in human MDA-MB-231 cells assessed as fold change at 15 uM measured after 72 hrs by Western blot analysis relative to control; format: functional
# MDA-MB-231 [28] = assay: Induction of autophagy in human MDA-MB-231 cells assessed as fold increase in LC3I/II protein level at 10 uM measured after 6 hrs by Western blot analysis relative to control; format: functional
# SGC-7901 [29] = assay: Cytotoxicity against human SGC-7901 cells assessed as cell inhibition measured after 72 hrs by MTT assay; format: functional, cell-based; details: SGC-7901, 72 h
# SGC-7901 [30] = assay: Induction of cell cycle arrest in human SGC-7901 cells assessed as accumulation of cells at G0/G1 phase at 10 uM incubated for 24 hrs by PI staining based flow cytometric analysis (reference value: 59.67%); format: functional
# A549 = assay: Cytotoxicity against human A549 cells assessed as cell inhibition measured after 72 hrs by MTT assay; format: functional, cell-based; details: A549, 72 h
smiles,measurement,setting,value
COc1ccc(Cn2c3ccccc3c3ccnc(C(=O)c4ccccc4)c32)cc1,fold change (FC),[1],0.98
same,Activity,SGC-7901 [2],60.49%
same,fold change (FC),MDA-MB-231 [3],1.04
same,Activity,MDA-MB-231 [4],75.93%
same,Activity,SGC-7901 [5],32.61%
same,Drug uptake,[6],Not Active
same,Activity,SGC-7901 [7],4.23%
same,fold change (FC),[8],0.8
same,IC50,HepG2,9.6 µM
same,Activity,MDA-MB-231 [9],21.05%
same,Activity,MDA-MB-231 [10],29.13%
same,fold change (FC),[11],0.78
same,fold change (FC),[12],1.01
same,Activity,SGC-7901 [13],56.48%
same,Activity,SGC-7901 [14],6.9%
same,Activity,MDA-MB-231 [15],14.71%
same,Activity,MDA-MB-231 [16],12.51%
same,fold change (FC),MDA-MB-231 [17],1.21
same,Activity,MDA-MB-231 [18],11.55%
same,Activity,MDA-MB-231 [19],31.51%
same,Activity,SGC-7901 [20],45.27%
same,Activity,SGC-7901 [21],41.36%
same,IC50,LS180,2900 nM
same,fold change (FC),MDA-MB-231 [22],1.51
same,fold change (FC),[23],0.5
same,Activity,MDA-MB-231 [24],22.49%
same,Activity,SGC-7901 [25],35.51%
same,Activity,MDA-MB-231 [26],Active
same,fold change (FC),[27],0.66
same,fold change (FC),MDA-MB-231 [28],1.39
same,IC50,SGC-7901 [29],12.1 µM
same,Activity,SGC-7901 [30],8%
same,IC50,A549,14.8 µM

# — ChEMBL document CHEMBL5385881, “Design, synthesis, and discovery of Eudistomin Y derivatives as lysosome-targeted antiproliferation agents” (Eur J Med Chem, 2023)
